{"source": "patent US20120219615A1", "about": "“Therapeutic Use of a TLR Agonist and Combination Therapy” (The Trustees of the University of Pennsylvania, priority 2010, published 2012)", "key": {"TLR8": {"target": "T1, TLR8 (Homo sapiens, UniProt Q9NR97)", "T1 construct": "assessed in peripheral blood mononuclear cells (PBMCs) from 15 healthy donors; endogenous in cells; host or cells: PBMCs from 15 healthy donors", "T1 sequence (Q9NR97 27-1041)": "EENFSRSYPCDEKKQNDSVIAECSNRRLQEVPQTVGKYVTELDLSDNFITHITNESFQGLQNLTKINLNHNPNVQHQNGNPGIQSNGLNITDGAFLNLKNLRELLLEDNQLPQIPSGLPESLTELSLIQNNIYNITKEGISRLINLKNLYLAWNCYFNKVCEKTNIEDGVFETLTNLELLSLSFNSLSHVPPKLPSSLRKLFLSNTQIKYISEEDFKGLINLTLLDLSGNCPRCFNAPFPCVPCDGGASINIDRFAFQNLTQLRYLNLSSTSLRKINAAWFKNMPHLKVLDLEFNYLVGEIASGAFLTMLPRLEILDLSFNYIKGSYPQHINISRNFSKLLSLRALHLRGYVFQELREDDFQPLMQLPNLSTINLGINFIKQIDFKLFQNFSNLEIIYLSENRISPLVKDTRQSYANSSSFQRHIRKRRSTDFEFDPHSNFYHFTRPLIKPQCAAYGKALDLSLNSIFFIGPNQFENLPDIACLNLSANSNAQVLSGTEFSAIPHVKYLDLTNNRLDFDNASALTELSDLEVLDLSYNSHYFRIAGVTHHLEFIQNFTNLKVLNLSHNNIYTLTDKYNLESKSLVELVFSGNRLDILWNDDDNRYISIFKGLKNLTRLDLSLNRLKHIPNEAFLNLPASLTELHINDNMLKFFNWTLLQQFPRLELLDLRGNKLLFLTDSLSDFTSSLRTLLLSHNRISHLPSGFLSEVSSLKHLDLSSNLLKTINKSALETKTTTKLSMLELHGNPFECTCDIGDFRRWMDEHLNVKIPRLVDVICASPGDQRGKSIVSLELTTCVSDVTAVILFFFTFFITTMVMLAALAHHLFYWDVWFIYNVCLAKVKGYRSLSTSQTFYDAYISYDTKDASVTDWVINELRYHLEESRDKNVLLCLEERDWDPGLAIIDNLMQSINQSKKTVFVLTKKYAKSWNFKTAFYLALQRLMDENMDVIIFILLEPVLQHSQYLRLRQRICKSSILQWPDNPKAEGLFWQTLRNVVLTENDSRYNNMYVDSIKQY", "test": "TNFα production in PBMCs (marker of TLR8 activation)", "format": "cell-based", "procedure": "(§1) The half-maximal effective concentration (EC50) for VTX-2337 activation of TLR8 and TLR7 was assessed in peripheral blood mononuclear cells (PBMCs) from 15 healthy donors and also in HEK293 cells transfected with TLR8 or TLR7 and an NF-κB driven reporter gene. […] Also it was observed that VTX-2337 had no activity on TLR2, TLR3, TLR4, TLR5, TLR6, or TLR9 at concentrations up to 25 μM."}, "TLR3": {"target": "T2, TLR3 (Homo sapiens, UniProt O15455)", "T2 sequence (O15455 24-904)": "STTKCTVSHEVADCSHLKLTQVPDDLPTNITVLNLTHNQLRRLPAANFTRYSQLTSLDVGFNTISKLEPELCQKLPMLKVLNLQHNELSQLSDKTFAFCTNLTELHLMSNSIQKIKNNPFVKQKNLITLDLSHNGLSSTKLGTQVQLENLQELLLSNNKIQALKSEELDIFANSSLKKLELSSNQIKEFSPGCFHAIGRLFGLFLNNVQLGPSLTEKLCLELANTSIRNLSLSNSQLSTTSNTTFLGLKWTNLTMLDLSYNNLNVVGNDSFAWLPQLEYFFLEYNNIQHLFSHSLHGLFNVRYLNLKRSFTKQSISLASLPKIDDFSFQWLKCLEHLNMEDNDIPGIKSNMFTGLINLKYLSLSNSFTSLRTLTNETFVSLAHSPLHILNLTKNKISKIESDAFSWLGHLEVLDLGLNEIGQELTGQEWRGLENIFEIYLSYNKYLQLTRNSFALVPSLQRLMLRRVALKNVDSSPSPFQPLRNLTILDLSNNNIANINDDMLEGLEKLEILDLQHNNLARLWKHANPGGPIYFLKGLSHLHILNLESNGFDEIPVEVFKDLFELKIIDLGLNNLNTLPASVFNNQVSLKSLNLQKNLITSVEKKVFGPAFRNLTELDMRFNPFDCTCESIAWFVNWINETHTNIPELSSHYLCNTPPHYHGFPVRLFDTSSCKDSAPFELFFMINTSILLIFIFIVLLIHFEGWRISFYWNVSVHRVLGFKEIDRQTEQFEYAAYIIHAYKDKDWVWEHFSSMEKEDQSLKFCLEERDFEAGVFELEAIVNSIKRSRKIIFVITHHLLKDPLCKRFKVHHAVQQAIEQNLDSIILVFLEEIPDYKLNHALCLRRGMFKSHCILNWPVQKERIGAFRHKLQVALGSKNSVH", "test": "Activity on TLR3", "format": "cell-based", "details": "concentrations up to 25 μM", "procedure": "as §1"}}, "data": [{"smiles": "CCCN(CCC)C(=O)C1=Cc2ccc(-c3ccc(C(=O)N4CCCC4)cc3)cc2N=C(N)C1", "note": "[VTX-2337, 2-amino-N,N-dipropyl-8-(4-(pyrrolidine-1-carbonyl)phenyl)-3H-benzo[b]azepine-4-carboxamide]", "values": [{"measurement": "EC50", "setting": "TLR8; PBMCs from 15 healthy donors", "result": 0.074, "unit": "µM"}, {"measurement": "selectivity for TLR8 relative to TLR7", "setting": "TLR8; PBMCs, TNFα vs IFNα EC50", "result": "> 45", "unit": "fold"}, {"measurement": "activity on TLR3", "setting": "TLR3", "result": "no activity"}]}]}
